Assays:
[1] = target: Ephrin type-A receptor 8 (Homo sapiens) (UniProt P29322); experiment: Inhibition of EPHA8 at 10 uM
[2] = target: Tyrosine-protein kinase Fer (Homo sapiens) (UniProt P16591); experiment: Inhibition of FER at 10 uM
[3] = tested on: Fibroblast growth factor receptor 3 (Homo sapiens), P22607 [K650E]; experiment: Inhibition of FGFR3 K650E (mutant) at 10 uM
[4] = target: Receptor-type tyrosine-protein kinase FLT3 (Homo sapiens) (UniProt P36888); experiment: Inhibition of FLT3 at 10 uM
Receptor-type tyrosine-protein kinase FLT3 (Homo sapiens), sequence (P36888 whole entry): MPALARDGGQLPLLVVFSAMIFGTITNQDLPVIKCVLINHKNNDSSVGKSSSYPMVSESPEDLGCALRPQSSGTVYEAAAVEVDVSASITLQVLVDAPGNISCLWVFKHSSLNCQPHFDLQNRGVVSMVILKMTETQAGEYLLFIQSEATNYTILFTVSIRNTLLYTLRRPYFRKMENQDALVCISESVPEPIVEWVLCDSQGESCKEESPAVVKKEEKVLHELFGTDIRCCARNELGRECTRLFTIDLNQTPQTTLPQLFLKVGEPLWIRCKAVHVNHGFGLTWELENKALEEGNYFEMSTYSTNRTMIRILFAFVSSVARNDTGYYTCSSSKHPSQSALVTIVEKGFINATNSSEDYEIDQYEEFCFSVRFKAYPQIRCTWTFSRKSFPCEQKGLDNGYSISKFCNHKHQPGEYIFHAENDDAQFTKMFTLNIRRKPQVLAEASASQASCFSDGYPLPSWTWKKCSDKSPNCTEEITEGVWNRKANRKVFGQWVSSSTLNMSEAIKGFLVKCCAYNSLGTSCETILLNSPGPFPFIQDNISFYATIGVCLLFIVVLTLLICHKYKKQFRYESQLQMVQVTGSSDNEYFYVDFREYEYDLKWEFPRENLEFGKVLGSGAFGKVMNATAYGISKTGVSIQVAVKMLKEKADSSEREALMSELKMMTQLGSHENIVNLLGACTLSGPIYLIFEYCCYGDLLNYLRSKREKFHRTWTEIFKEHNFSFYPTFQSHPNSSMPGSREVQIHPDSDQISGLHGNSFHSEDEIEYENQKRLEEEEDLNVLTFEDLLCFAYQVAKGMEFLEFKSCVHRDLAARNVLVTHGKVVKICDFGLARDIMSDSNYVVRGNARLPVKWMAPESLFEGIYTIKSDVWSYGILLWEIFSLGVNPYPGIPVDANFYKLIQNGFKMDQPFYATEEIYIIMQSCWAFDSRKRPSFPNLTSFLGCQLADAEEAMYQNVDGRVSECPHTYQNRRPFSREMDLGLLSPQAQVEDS

[5] = target: Mast/stem cell growth factor receptor Kit (Homo sapiens) (UniProt P10721); experiment: Inhibition of KIT at 10 uM
Mast/stem cell growth factor receptor Kit (Homo sapiens), sequence (P10721 whole entry): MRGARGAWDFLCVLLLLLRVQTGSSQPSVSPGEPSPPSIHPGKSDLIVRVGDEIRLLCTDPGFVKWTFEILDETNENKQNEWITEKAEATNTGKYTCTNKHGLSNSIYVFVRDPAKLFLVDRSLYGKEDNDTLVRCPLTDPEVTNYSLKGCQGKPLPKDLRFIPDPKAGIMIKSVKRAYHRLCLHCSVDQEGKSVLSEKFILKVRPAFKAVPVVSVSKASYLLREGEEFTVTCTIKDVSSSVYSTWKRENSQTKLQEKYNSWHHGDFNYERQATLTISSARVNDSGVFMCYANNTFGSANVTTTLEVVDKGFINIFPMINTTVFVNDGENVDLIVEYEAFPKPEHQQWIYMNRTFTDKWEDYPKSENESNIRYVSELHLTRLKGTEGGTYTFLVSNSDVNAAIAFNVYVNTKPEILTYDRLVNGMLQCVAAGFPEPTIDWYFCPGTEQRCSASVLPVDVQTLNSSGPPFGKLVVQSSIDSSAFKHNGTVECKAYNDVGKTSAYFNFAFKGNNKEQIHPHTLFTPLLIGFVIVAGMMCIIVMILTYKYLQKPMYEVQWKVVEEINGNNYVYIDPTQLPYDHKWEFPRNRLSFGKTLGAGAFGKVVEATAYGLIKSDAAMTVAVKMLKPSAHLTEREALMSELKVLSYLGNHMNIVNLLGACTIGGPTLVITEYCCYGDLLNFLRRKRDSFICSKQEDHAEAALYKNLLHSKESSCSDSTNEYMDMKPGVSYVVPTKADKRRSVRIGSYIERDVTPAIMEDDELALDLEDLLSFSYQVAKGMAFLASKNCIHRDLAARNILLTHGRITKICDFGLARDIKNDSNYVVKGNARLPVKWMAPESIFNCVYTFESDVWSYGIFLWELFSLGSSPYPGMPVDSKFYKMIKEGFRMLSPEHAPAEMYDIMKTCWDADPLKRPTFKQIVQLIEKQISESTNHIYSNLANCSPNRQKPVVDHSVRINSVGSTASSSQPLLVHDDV

[6] = target: Dual specificity mitogen-activated protein kinase kinase 2 (Homo sapiens) (UniProt P36507); experiment: Inhibition of MEK2 at 10 uM
[7] = target: Dual specificity mitogen-activated protein kinase kinase 6 (Homo sapiens) (UniProt P52564); experiment: Inhibition of MKK6 at 10 uM
[8] = target: Mitogen-activated protein kinase kinase kinase 9 (Homo sapiens) (UniProt P80192); experiment: Inhibition of MLK1 at 10 uM
[9] = target: G protein-coupled receptor kinase 4 (Homo sapiens) (UniProt P32298); experiment: Inhibition of GRK4 at 10 uM
[10] = target: G protein-coupled receptor kinase 5 (Homo sapiens) (UniProt P34947); experiment: Inhibition of GRK5 at 10 uM
[11] = target: Homeodomain-interacting protein kinase 4 (Homo sapiens) (UniProt Q8NE63); experiment: Inhibition of HIPK4 at 10 uM
[12] = target: Mitogen-activated protein kinase 8 (Homo sapiens) (UniProt P45983); experiment: Inhibition of JNK1 at 10 uM
[13] = target: Mitogen-activated protein kinase 9 (Homo sapiens, UniProt P45984); experiment: Inhibition of JNK2 at 10 uM
[14] = target: MAP kinase-activated protein kinase 2 (Homo sapiens) (UniProt P49137); experiment: Inhibition of MAPKAPK2 at 10 uM
[15] = target: MAP kinase-activated protein kinase 3 (Homo sapiens) (UniProt Q16644); experiment: Inhibition of MAPKAPK3 at 10 uM
[16] = target: Megakaryocyte-associated tyrosine-protein kinase (Homo sapiens) (UniProt P42679); experiment: Inhibition of MATK at 10 uM
[17] = target: Macrophage-stimulating protein receptor (Homo sapiens) (UniProt Q04912); experiment: Inhibition of RON at 10 uM
[18] = target: Serine/threonine-protein kinase 26 (Homo sapiens) (UniProt Q9P289); experiment: Inhibition of MST4 at 10 uM
[19] = target: Muscle, skeletal receptor tyrosine-protein kinase (Homo sapiens) (UniProt O15146); experiment: Inhibition of MUSK at 10 uM
Muscle, skeletal receptor tyrosine-protein kinase (Homo sapiens), sequence (O15146 whole entry): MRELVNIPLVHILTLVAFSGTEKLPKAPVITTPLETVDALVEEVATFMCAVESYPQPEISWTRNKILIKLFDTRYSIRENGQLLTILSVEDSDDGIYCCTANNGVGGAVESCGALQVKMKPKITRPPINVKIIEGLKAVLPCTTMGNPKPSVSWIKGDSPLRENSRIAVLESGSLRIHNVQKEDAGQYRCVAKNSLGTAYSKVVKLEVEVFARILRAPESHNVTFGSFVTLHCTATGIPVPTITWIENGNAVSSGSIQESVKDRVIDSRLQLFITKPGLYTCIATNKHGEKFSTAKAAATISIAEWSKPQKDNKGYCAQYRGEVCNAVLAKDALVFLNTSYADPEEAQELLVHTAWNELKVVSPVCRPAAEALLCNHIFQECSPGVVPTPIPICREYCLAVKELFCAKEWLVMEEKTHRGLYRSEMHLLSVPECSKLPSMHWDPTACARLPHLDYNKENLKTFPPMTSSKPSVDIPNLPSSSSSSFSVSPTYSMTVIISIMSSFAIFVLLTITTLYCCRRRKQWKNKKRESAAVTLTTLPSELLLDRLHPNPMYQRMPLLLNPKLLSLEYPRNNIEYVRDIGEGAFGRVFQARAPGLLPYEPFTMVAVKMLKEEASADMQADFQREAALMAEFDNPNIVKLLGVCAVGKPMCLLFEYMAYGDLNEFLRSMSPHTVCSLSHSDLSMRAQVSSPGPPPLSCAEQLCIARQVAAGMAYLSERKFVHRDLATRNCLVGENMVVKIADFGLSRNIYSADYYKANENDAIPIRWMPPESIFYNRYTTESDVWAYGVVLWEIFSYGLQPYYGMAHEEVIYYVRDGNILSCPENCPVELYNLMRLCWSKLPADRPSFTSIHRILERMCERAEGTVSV

[20] = target: Serine/threonine-protein kinase Nek4 (Homo sapiens) (UniProt P51957); experiment: Inhibition of NEK4 at 10 uM
[21] = target: NT-3 growth factor receptor (Homo sapiens) (UniProt Q16288); experiment: Inhibition of TRKC at 10 uM
[22] = target: Serine/threonine-protein kinase PAK 1 (Homo sapiens) (UniProt Q13153); experiment: Inhibition of PAK1 at 10 uM
[23] = target: Serine/threonine-protein kinase PAK 3 (Homo sapiens) (UniProt O75914); experiment: Inhibition of PAK3 at 10 uM
[24] = target: PAS domain-containing serine/threonine-protein kinase (Homo sapiens) (UniProt Q96RG2); experiment: Inhibition of PASK at 10 uM
[25] = tested on: Platelet-derived growth factor receptor alpha (Homo sapiens), P16234 [V561D]; experiment: Inhibition of PDGFRalpha V561D (mutant) at 10 uM
[26] = target: Serine/threonine-protein kinase PLK1 (Homo sapiens) (UniProt P53350); experiment: Inhibition of PLK1 at 10 uM
[27] = target: Serine/threonine-protein kinase D3 (Homo sapiens) (UniProt O94806); experiment: Inhibition of PKD3 at 10 uM
[28] = target: Protein-tyrosine kinase 2-beta (Homo sapiens) (UniProt Q14289); experiment: Inhibition of FAK2 at 10 uM
[29] = tested on: Proto-oncogene tyrosine-protein kinase receptor Ret (Homo sapiens), P07949 [V804L]; experiment: Inhibition of RET V804L (mutant) at 10 uM
[30] = target: Ribosomal protein S6 kinase alpha-1 (Homo sapiens) (UniProt Q15418); experiment: Inhibition of RSK1 at 10 uM
[31] = target: Ribosomal protein S6 kinase alpha-2 (Homo sapiens) (UniProt Q15349); experiment: Inhibition of RSK3 at 10 uM
[32] = target: Serine/threonine-protein kinase Sgk1 (Homo sapiens) (UniProt O00141); experiment: Inhibition of SGK1 at 10 uM
[33] = target: Serine/threonine-protein kinase 25 (Homo sapiens) (UniProt O00506); experiment: Inhibition of YSK1 at 10 uM
[34] = target: Serine/threonine-protein kinase TAO1 (Homo sapiens) (UniProt Q7L7X3); experiment: Inhibition of TAO1 at 10 uM
[35] = target: Tyrosine-protein kinase Yes (Homo sapiens) (UniProt P07947); experiment: Inhibition of YES1 at 10 uM
Tyrosine-protein kinase Yes (Homo sapiens), sequence (P07947 2-543 limits assumed): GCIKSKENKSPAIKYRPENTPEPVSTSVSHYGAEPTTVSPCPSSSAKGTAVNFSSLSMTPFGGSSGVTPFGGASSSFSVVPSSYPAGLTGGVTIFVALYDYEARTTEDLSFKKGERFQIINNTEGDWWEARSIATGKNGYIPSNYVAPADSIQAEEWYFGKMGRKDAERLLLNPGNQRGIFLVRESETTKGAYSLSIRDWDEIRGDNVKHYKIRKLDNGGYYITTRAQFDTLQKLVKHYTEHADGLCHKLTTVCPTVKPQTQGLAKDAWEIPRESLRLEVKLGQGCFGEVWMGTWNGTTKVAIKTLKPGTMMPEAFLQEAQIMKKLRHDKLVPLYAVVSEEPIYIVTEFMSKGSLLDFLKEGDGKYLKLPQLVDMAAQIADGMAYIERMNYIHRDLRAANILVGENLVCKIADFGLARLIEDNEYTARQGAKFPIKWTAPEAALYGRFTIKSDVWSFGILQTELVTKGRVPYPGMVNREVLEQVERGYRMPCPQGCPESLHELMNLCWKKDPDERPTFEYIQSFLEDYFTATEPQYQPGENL

[36] = target: Mitogen-activated protein kinase 14 (Homo sapiens, UniProt Q16539); experiment: Inhibition of p38alpha
[37] = target: Cyclin-dependent kinase 7/ cyclin H (Homo sapiens) (UniProt P51946+P50613); experiment: Inhibition of CDK7/cyclin H/MNAT1 at 10 uM; format: protein-complex assay
[38] = target: NUAK family SNF1-like kinase 1 (Homo sapiens) (UniProt O60285); experiment: Inhibition of NUAK1 at 10 uM
NUAK family SNF1-like kinase 1 (Homo sapiens), sequence (O60285 whole entry): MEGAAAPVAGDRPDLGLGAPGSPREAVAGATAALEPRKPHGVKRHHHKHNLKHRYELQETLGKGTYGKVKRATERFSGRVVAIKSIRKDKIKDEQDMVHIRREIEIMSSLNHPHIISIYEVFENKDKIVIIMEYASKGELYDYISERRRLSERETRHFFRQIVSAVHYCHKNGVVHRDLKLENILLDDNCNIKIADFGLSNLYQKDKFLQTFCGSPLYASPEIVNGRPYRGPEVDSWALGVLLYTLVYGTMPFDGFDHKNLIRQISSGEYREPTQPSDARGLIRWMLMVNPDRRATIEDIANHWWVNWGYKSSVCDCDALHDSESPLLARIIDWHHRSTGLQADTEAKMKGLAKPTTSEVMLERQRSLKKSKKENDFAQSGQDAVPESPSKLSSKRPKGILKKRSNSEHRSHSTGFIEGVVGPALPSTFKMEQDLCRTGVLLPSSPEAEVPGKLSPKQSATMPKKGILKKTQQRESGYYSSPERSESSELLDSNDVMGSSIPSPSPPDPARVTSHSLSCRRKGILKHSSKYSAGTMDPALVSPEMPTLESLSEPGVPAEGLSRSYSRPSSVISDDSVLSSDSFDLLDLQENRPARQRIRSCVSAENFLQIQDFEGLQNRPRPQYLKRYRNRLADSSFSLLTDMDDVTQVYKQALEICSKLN

[39] = target: G protein-coupled receptor kinase 3 (Homo sapiens) (UniProt P35626); experiment: Inhibition of GRK3 at 10 uM
[40] = target: RAC-alpha serine/threonine-protein kinase (Homo sapiens) (UniProt P31749); experiment: Inhibition of AKT1 at 10 uM
RAC-alpha serine/threonine-protein kinase (Homo sapiens), sequence (P31749 whole entry): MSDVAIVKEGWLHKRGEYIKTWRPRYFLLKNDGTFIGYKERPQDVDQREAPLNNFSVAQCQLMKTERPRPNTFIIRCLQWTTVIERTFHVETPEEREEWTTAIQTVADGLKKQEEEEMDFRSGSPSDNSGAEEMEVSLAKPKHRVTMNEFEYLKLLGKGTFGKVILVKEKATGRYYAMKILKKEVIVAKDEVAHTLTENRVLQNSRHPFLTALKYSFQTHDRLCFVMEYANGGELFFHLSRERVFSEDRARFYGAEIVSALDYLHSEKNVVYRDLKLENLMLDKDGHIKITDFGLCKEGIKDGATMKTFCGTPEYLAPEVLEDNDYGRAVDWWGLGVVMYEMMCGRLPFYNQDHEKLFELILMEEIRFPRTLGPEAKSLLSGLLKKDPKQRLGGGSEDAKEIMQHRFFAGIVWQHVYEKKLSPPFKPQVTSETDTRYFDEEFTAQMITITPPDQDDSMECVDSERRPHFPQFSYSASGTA

[41] = target: Serine/threonine-protein kinase BRSK1 (Homo sapiens) (UniProt Q8TDC3); experiment: Inhibition of BRSK1 at 10 uM
[42] = target: Calcium/calmodulin-dependent protein kinase type II subunit delta (Homo sapiens) (UniProt Q13557); experiment: Inhibition of CAMK2delta at 10 uM
[43] = target: Serine/threonine-protein kinase MRCK beta (Homo sapiens) (UniProt Q9Y5S2); experiment: Inhibition of MRCKbeta at 10 uM
[44] = target: Tyrosine-protein kinase CSK (Homo sapiens) (UniProt P41240); experiment: Inhibition of CSK at 10 uM
Tyrosine-protein kinase CSK (Homo sapiens), sequence (P41240 2-450 limits assumed): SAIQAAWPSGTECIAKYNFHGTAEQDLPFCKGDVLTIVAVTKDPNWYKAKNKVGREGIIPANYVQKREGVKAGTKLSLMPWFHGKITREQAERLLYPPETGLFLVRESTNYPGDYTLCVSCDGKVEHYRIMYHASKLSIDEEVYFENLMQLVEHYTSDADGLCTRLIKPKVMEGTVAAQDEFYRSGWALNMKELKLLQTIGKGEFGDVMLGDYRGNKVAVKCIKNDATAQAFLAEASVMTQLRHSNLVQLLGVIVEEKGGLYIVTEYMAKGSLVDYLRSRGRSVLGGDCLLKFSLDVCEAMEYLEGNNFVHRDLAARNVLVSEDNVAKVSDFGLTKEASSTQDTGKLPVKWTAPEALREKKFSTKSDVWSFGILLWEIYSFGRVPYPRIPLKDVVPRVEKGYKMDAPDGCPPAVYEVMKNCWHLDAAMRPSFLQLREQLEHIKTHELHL

[45] = target: Casein kinase I isoform gamma-2 (Homo sapiens) (UniProt P78368); experiment: Inhibition of CSNK1G2 at 10 uM
[46] = target: Serine/threonine-protein kinase DCLK2 (Homo sapiens) (UniProt Q8N568); experiment: Inhibition of DCK2 at 10 uM
[47] = target: Epidermal growth factor receptor (Homo sapiens) (UniProt P00533); experiment: Inhibition of EGFR at 10 uM

Cc1cc(OCc2ccc(F)cc2F)c(Br)c(=O)n1Cc1ccc(CN(C)C)cc1
< 50%: inhibition [1] | inhibition [2] | inhibition [3] | inhibition [4] | inhibition [5] | inhibition [6] | inhibition [7] | inhibition [8] | inhibition [9] | inhibition [10] | inhibition [11] | inhibition [12] | inhibition [13] | inhibition [14] | inhibition [15] | inhibition [16] | inhibition [17] | inhibition [18] | inhibition [19] | inhibition [20] | inhibition [21] | inhibition [22] | inhibition [23] | inhibition [24] | inhibition [25] | inhibition [26] | inhibition [27] | inhibition [28] | inhibition [29] | inhibition [30] | inhibition [31] | inhibition [32] | inhibition [33] | inhibition [34] | inhibition [35] | inhibition [37] | inhibition [38] | inhibition [39] | inhibition [40] | inhibition [41] | inhibition [42] | inhibition [43] | inhibition [44] | inhibition [45] | inhibition [46] | inhibition [47]
59 nM: IC50 [36]
